Measured values published in US8697655B2, “Method of selecting polypeptide sequence, and metal oxide or silicon-containing compound binding peptide and use thereof” (Riken, priority 2010, dated 2014).

Assay: Binding of P-EGFs to TiO2 plate, anti-EGF antibody chemiluminescence detection
Settings: about 2.0 ng, 10 μl in TBS pH 7.5; washed 3 times with TBS-T; anti-human EGF antibody and HRP secondary
Method: Subsequently, in accordance with a scheme in the left in FIG. 4-2, various P-EGF solutions (about 2.0 ng, 10 μl in TBS, pH 7.5) were added on a TiO2 plate (a plate produced by vapor deposition of titanium on the surface of a glass plate with a diameter of 15 mm and a thickness of 0.6 mm (manufactured by Matsunami Glass Ind., Ltd.) (the vapor deposition step was requested to Osaka Vacuum Industrial Co., Ltd.) was used); and a washing operation (TBS-T buffer, pH 7.5) was repeated 3 times. And, after blocking with 0.1% BSA solution, an anti-human EGF antibody was added as a primary antibody. Furthermore, after the washing operation (TBS-T buffer, pH 7.5) was repeated 3 times, an anti-mouse IgG antibody HRP conjugate was added as a secondary antibody. At the end, using a luminescent phenomenon by a reaction between a chemiluminescence reagent and HRP as an index, the presence of protein immobilized on the TiO2 plate was detected. […]
First, in accordance with a scheme in the left in FIG. 7-1, various P-EGF solutions (about 2.0 ng, 10 μl in TBS, pH 7.5) were added on a TiO2 plate and a washing operation (TBS-T buffer, pH 7.5) was repeated 3 times. […] At the end, using a luminescent phenomenon by a reaction between a chemiluminescence reagent and HRP as an index, the presence of protein immobilized on the TiO2 plate was detected.

Which “TiO2 plate binding (luminescent phenomenon of protein immobilized on the plate)” value does the source give for “EGF: EGF to which a peptide was not fused” here?
The value was “did not exhibit TiO2 binding”.
